Measurements taken from US11987588B2, “Modulators of the beta-3 adrenergic receptor useful for the treatment or prevention of heart failure and disorders related thereto” (Arena Pharmaceuticals, Inc., priority 2017, dated 2024).

target: Beta-3 Adrenergic Receptor (Homo sapiens (Human), UniProt P13945); assay: Homogeneous Time-Resolved Fluorescence (HTRF) cAMP antagonist assay, IC50 determination; format: cell-based; settings: CHO-K1 cells stably expressing recombinant receptor, isoproterenol at EC90
Procedure, shortened: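 CHO-K1 cells stably expressing the recombinant receptor were preincubated with compound (10-point, 5-fold dilutions; top final typically 10 or 100 μM) in PBS with 1 mM IBMX, then stimulated with isoproterenol at its EC90 for 1 h at room temperature. cAMP was read by HTRF against an on-plate standard curve.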

Beta-3 Adrenergic Receptor, sequence (P13945 whole entry, species assumed): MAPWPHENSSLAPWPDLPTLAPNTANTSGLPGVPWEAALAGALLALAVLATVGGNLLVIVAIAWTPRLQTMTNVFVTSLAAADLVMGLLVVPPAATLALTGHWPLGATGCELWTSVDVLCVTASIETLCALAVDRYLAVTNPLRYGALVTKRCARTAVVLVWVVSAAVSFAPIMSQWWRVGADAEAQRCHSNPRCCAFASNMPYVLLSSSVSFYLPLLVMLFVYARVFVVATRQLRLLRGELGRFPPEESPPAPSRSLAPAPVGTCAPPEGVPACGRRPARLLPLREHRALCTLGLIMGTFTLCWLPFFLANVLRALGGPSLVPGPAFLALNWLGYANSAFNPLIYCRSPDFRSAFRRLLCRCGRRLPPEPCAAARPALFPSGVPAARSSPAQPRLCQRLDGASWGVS

Row | IC50 [nM] | SMILES
1 | 31.3 | CNS(=O)(=O)c1cccc(OC[C@@H](O)CN[C@H]2COC3(CCN(S(=O)(=O)c4cnc5c(c4)N(C(C)C)CCO5)CC3)C2)c1 [Compound 469, 3-((S)-2-hydroxy-3-((R)-8-(1-isopropyl-2,3-dihydro-1H-pyrido[2,3-b][1,4]oxazin-7-ylsulfonyl)-1-oxa-8-azaspiro[4.5]decan-3-ylamino)propoxy)-N-methylbenzenesulfonamide]
2 | 17.5 | CNS(=O)(=O)c1cccc(OC[C@@H](O)CN[C@H]2COC3(CCN(S(=O)(=O)c4cccc(-c5cc[nH]n5)c4)CC3)C2)c1 [Compound 296, 3-((S)-3-((R)-8-(3-(1H-pyrazol-3-yl)phenylsulfonyl)-1-oxa-8-azaspiro[4.5]decan-3-ylamino)-2-hydroxypropoxy)-N-methylbenzenesulfonamide]
3 | 101 | CNS(=O)(=O)c1cccc(OC[C@@H](O)CN[C@H]2COC3(CCN(S(=O)(=O)c4cc5c(nc4C)OCCN5C)CC3)C2)c1 [Compound 466, 3-((S)-3-((R)-8-(1,6-dimethyl-2,3-dihydro-1H-pyrido[2,3-b][1,4]oxazin-7-ylsulfonyl)-1-oxa-8-azaspiro[4.5]decan-3-ylamino)-2-hydroxypropoxy)-N-methylbenzenesulfonamide]
4 | 87.2 | CCCn1cc(S(=O)(=O)N2CCC3(CC2)C[C@@H](NC[C@H](O)COc2cccc(S(=O)(=O)NC)c2)CO3)c(=O)c2ccccc21 [Compound 524, 3-((S)-2-hydroxy-3-((R)-8-(4-oxo-1-propyl-1,4-dihydroquinolin-3-ylsulfonyl)-1-oxa-8-azaspiro[4.5]decan-3-ylamino)propoxy)-N-methylbenzenesulfonamide]
5 | 9.36 | CNS(=O)(=O)c1cccc(OC[C@@H](O)CNC2COC3(CCN(S(=O)(=O)c4cccc(-c5ccc(NS(C)(=O)=O)cc5)c4)CC3)C2)c1 (stereo partly drawn) [Compound 86, 3-((2S)-2-hydroxy-3-(8-(4′-(methylsulfonamido)biphenyl-3-ylsulfonyl)-1-oxa-8-azaspiro[4.5]decan-3-ylamino)propoxy)-N-methylbenzenesulfonamide]
6 | 15 | CNS(=O)(=O)c1cccc(OC[C@@H](O)CNC2COC3(CCN(S(=O)(=O)c4cccc(F)c4Cl)CC3)C2)c1 (stereo partly drawn) [Compound 199, 3-((2S)-3-(8-(2-chloro-3-fluorophenylsulfonyl)-1-oxa-8-azaspiro[4.5]decan-3-ylamino)-2-hydroxypropoxy)-N-methylbenzenesulfonamide]
7 | 13.6 | Cc1c[nH]c2ncc(S(=O)(=O)N3CCC4(CC3)C[C@@H](NC[C@H](O)COc3cccc(S(N)(=O)=O)c3)CO4)cc12 [Compound 558, 3-((S)-2-hydroxy-3-((R)-8-(3-methyl-1H-pyrrolo[2,3-b]pyridin-5-ylsulfonyl)-1-oxa-8-azaspiro[4.5]decan-3-ylamino)propoxy)benzenesulfonamide]
8 | 499 | CNS(=O)(=O)c1cccc(OC[C@@H](O)CNC2COC3(CCN(S(=O)(=O)c4ccc(C)c(-c5ccc(CN)cc5)c4)CC3)C2)c1 (stereo partly drawn) [Compound 376, 3-((2S)-3-(8-(4′-(aminomethyl)-6-methylbiphenyl-3-ylsulfonyl)-1-oxa-8-azaspiro[4.5]decan-3-ylamino)-2-hydroxypropoxy)-N-methylbenzenesulfonamide]
9 | 97.3 | Cc1noc(C)c1S(=O)(=O)N1CCC2(CC1)CC(NC[C@H](O)COc1cccc(S(=O)(=O)N(C)C)c1)CO2 (stereo partly drawn) [Compound 254, 3-((2S)-3-(8-(3,5-dimethylisoxazol-4-ylsulfonyl)-1-oxa-8-azaspiro[4.5]decan-3-ylamino)-2-hydroxypropoxy)-N,N-dimethylbenzenesulfonamide]
10 | 16.1 | CNS(=O)(=O)c1cccc(OC[C@@H](O)CNC2COC3(CCN(S(=O)(=O)c4cc(-c5ccc(CN)cc5)cc5c4OCC5)CC3)C2)c1 (stereo partly drawn) [Compound 358, 3-((2S)-3-(8-(5-(4-(aminomethyl)phenyl)-2,3-dihydrobenzofuran-7-ylsulfonyl)-1-oxa-8-azaspiro[4.5]decan-3-ylamino)-2-hydroxypropoxy)-N-methylbenzenesulfonamide]
11 | 9.62 | CCNS(=O)(=O)c1cccc(OC[C@@H](O)CNC2COC3(CCN(S(=O)(=O)c4ccc5ccccc5c4)CC3)C2)c1 (stereo partly drawn) [Compound 101, N-ethyl-3-((2S)-2-hydroxy-3-(8-(naphthalen-2-ylsulfonyl)-1-oxa-8-azaspiro[4.5]decan-3-ylamino)propoxy)benzenesulfonamide]
12 | 30.7 | CNS(=O)(=O)c1cccc(OC[C@@H](O)CNC2COC3(CCN(S(=O)(=O)c4ccccc4C#N)CC3)C2)c1 (stereo partly drawn) [Compound 39, 3-((2S)-3-(8-(2-cyanophenylsulfonyl)-1-oxa-8-azaspiro[4.5]decan-3-ylamino)-2-hydroxypropoxy)-N-methylbenzenesulfonamide]
13 | 28.8 | CNS(=O)(=O)c1cccc(OC[C@@H](O)CN[C@H]2COC3(CCN(S(=O)(=O)c4cnc5c(c4)OCCN5)CC3)C2)c1 [Compound 500, 3-((S)-3-((R)-8-(3,4-dihydro-2H-pyrido[3,2-b][1,4]oxazin-7-ylsulfonyl)-1-oxa-8-azaspiro[4.5]decan-3-ylamino)-2-hydroxypropoxy)-N-methylbenzenesulfonamide]
14 | 112 | CN1CCOc2ncc(S(=O)(=O)N3CCC4(CC3)C[C@@H](NC[C@H](O)COc3cccc(S(=O)(=O)NCCO)c3)CO4)cc21 [Compound 417, 3-((S)-2-hydroxy-3-((R)-8-(1-methyl-2,3-dihydro-1H-pyrido[2,3-b][1,4]oxazin-7-ylsulfonyl)-1-oxa-8-azaspiro[4.5]decan-3-ylamino)propoxy)-N-(2-hydroxyethyl)benzenesulfonamide]
15 | 179 | CNS(=O)(=O)c1cccc(OC[C@@H](O)CN[C@H]2COC3(CCN(S(=O)(=O)c4cc(C)cc5c(O)ccnc45)CC3)C2)c1 [Compound 547, 3-((S)-2-hydroxy-3-((R)-8-(4-hydroxy-6-methylquinolin-8-ylsulfonyl)-1-oxa-8-azaspiro[4.5]decan-3-ylamino)propoxy)-N-methylbenzenesulfonamide]
16 | 541 | CNS(=O)(=O)c1cccc(OC[C@@H](O)CN[C@H]2COC3(CCN(S(=O)(=O)c4ccc[n+]([O-])c4)CC3)C2)c1 [Compound 496, 3-((R)-3-((S)-2-hydroxy-3-(3-(N-methylsulfamoyl)phenoxy)propylamino)-1-oxa-8-azaspiro[4.5]decan-8-ylsulfonyl)pyridine 1-oxide]
17 | 50.6 | CNS(=O)(=O)c1cccc(OC[C@@H](O)CNC2COC3(CCN(S(=O)(=O)c4cccc(Oc5ccccc5C(F)(F)F)c4)CC3)C2)c1 (stereo partly drawn) [Compound 170, 3-((2S)-2-hydroxy-3-(8-(3-(2-(trifluoromethyl)phenoxy)phenylsulfonyl)-1-oxa-8-azaspiro[4.5]decan-3-ylamino)propoxy)-N-methylbenzenesulfonamide]
18 | 30.7 | CNS(=O)(=O)c1cccc(OC[C@@H](O)CNC2COC3(CCN(S(=O)(=O)c4ccccc4OC(F)(F)F)CC3)C2)c1 (stereo partly drawn) [Compound 171, 3-((2S)-2-hydroxy-3-(8-(2-(trifluoromethoxy)phenylsulfonyl)-1-oxa-8-azaspiro[4.5]decan-3-ylamino)propoxy)-N-methylbenzenesulfonamide]
19 | 78 | CNS(=O)(=O)c1cccc(OC[C@@H](O)CNC2COC3(CCN(S(=O)(=O)c4cccnc4)CC3)C2)c1 (stereo partly drawn) [Compound 324, 3-((2S)-2-hydroxy-3-(8-(pyridin-3-ylsulfonyl)-1-oxa-8-azaspiro[4.5]decan-3-ylamino)propoxy)-N-methylbenzenesulfonamide]
20 | 124 | CNS(=O)(=O)c1cccc(OC[C@@H](O)CN[C@H]2COC3(CCN(S(=O)(=O)c4c[nH]c5cccnc45)CC3)C2)c1 [Compound 529, 3-((S)-3-((R)-8-(1H-pyrrolo[3,2-b]pyridin-3-ylsulfonyl)-1-oxa-8-azaspiro[4.5]decan-3-ylamino)-2-hydroxypropoxy)-N-methylbenzenesulfonamide]
21 | 41.8 | CNS(=O)(=O)c1cccc(OC[C@@H](O)CN[C@H]2COC3(CCN(S(=O)(=O)c4cnc5c(c4)CCCO5)CC3)C2)c1 [Compound 483, 3-((S)-3-((R)-8-(3,4-dihydro-2H-pyrano[2,3-b]pyridin-6-ylsulfonyl)-1-oxa-8-azaspiro[4.5]decan-3-ylamino)-2-hydroxypropoxy)-N-methylbenzenesulfonamide]
22 | 31.9 | CNS(=O)(=O)c1cccc(OC[C@@H](O)CNC2COC3(CCN(S(=O)(=O)c4ccc(NC(C)=O)cc4)CC3)C2)c1 (stereo partly drawn) [Compound 42, N-(4-(3-((S)-2-hydroxy-3-(3-(N-methylsulfamoyl)phenoxy)propylamino)-1-oxa-8-azaspiro[4.5]decan-8-ylsulfonyl)phenyl)acetamide]
23 | 33.9 | CNS(=O)(=O)c1cccc(OC[C@@H](O)CN[C@H]2COC3(CCN(S(=O)(=O)c4cnc5nc(N)ccc5c4)CC3)C2)c1 [Compound 489, 3-((S)-3-((R)-8-(7-amino-1,8-naphthyridin-3-ylsulfonyl)-1-oxa-8-azaspiro[4.5]decan-3-ylamino)-2-hydroxypropoxy)-N-methylbenzenesulfonamide]
24 | 22.6 | CN(C)S(=O)(=O)c1cccc(OC[C@@H](O)CNC2COC3(CCN(S(=O)(=O)c4ccc5c(c4)CCCC5)CC3)C2)c1 (stereo partly drawn) [Compound 253, 3-((2S)-2-hydroxy-3-(8-(5,6,7,8-tetrahydronaphthalen-2-ylsulfonyl)-1-oxa-8-azaspiro[4.5]decan-3-ylamino)propoxy)-N,N-dimethylbenzenesulfonamide]
25 | 8.84 | CNS(=O)(=O)c1cccc(OC[C@@H](O)CN[C@@H]2COC3(CCN(S(=O)(=O)c4cccc(-c5ccc(S(N)(=O)=O)cc5)c4)CC3)C2)c1 [Compound 291, 3′-((S)-3-((S)-2-hydroxy-3-(3-(N-methylsulfamoyl)phenoxy)propylamino)-1-oxa-8-azaspiro[4.5]decan-8-ylsulfonyl)biphenyl-4-sulfonamide]
26 | 25 | CNS(=O)(=O)c1cccc(OC[C@@H](O)CN[C@H]2COC3(CCN(S(=O)(=O)c4cccc(-c5cccnc5)c4)CC3)C2)c1 [Compound 285, 3-((S)-2-hydroxy-3-((R)-8-(3-(pyridin-3-yl)phenylsulfonyl)-1-oxa-8-azaspiro[4.5]decan-3-ylamino)propoxy)-N-methylbenzenesulfonamide]
